Data on 41 compounds can be found in paper PMC6353850, “Supersensitive Odorant Receptor Underscores Pleiotropic Roles of Indoles in Mosquito Ecology” (Frontiers in Cellular Neuroscience, 2019).

Molecules are shown by their SMILES. Structures can show the parent of a compound that is named as a salt.

Chain of AaegOR9 (Q178U6 whole entry): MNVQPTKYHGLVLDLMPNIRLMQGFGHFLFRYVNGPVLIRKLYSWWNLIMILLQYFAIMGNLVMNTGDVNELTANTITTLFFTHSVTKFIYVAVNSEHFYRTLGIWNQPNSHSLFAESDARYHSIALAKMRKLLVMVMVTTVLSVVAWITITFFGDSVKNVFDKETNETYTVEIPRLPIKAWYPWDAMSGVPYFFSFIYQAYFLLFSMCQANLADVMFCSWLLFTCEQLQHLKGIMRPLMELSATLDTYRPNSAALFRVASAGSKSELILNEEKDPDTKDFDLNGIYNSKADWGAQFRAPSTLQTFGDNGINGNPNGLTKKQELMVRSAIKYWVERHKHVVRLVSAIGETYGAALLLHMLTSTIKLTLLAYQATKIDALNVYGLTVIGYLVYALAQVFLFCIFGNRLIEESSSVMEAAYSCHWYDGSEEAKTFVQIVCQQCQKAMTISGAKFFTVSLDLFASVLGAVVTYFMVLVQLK
Chain of AaegOR9 (Q177X5 entry or part of it): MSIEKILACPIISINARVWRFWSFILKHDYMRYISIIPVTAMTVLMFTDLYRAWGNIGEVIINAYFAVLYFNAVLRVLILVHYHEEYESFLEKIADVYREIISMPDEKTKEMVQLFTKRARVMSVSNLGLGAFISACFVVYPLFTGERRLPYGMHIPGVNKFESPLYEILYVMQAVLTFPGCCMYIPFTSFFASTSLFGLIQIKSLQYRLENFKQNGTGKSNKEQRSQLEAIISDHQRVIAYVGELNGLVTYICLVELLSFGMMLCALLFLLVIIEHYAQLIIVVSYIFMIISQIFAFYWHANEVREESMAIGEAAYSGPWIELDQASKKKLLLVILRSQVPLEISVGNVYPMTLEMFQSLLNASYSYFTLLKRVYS

One experiment concerns the target AaegOR9 (Aedes aegypti, UniProt Q177X5). As to the kind of experiment: Two-electrode voltage clamp of Xenopus oocytes expressing AaegOR9-ORco (tuning curve and concentration-response). It is filed as cell-based. As to conditions: 500 nM odorant; panel of 31 indole derivatives. How it is done:
The methodologies and protocols have been described in details elsewhere (Bohbot and Dickens, [2009]). AaegOr9 and Aaeg-ORco cRNAs (Bohbot et al., [2011]) were synthesized from linearized pSP64DV expression vectors using the mMESSAGE mMACHINE® SP6 kit (Life Technologies). Stage V-VII oocytes were harvested from Xenopus laevis females, mechanically separated, treated with collagenase (8 mg/mL, 30 min, 18°C) and rinsed in washing solution (96 mM NaCl, 2 mM KCl, 5 mM MgCl2 and 5 mM HEPES, pH 7.6). Oocytes were microinjected with 27.6 ng AaegOr9 and AaegORco cRNAs, incubated at 18°C for 3–4 days in ND96 solution (96 mM NaCl, 2 mM KCl, 5 mM MgCl2, 0.8 mM CaCl2 and 5 mM HEPES, pH 7.6), supplemented with 5% dialyzed horse serum, 50 μg/mL tetracycline, 100 μg/mL streptomycin and 550 μg/mL sodium pyruvate. Whole-cell currents were recorded using the two-microelectrode voltage-clamp technique. During recording sessions, the holding potential was maintained at −80 mV using an OC-725C oocyte clamp (Warner Instruments, LLC, Hamden, CT, USA). Oocytes placed in a RC-3Z oocyte recording chamber (Warner Instruments, LLC, Hamden, CT, USA) were exposed to odorants for 8 s. Current was allowed to return to baseline between odorant applications. Data acquisition and concentration-response analyses were carried out with a Digidata 1550A and the pCLAMP10 software (Molecular Devices, Sunnyvale, CA, USA), and analyzed using GraphPad Prism 7 (GraphPad Software Inc., La Jolla, CA, USA). Stock concentration of odorants (10^−2 M) were dissolved in ringer solution containing 2% dimethyl sulfoxide (DMSO) in order to solubilize the hydrophobic indolic compounds.
The response profile was established using multiple sessions, each including six compounds at a time and indole as an internal reference. […] All the response values were normalized to the indole reference in each recording session (Supplementary Figure 1).
For the establishment of the concentration-response curves, oocytes were exposed to increasing concentrations of indole, skatole and indole-3-carboxaldehyde (I3C; Supplementary Figure 2). Quantitative characterization of OR sensitivity was estimated using the averaged effective concentration at 50% of the maximal response (EC50) over the sample population. The data to establish the concentration response curve and EC50 of AaegOR10-skatole was extracted from a previous study (Bohbot and Dickens, [2012]).
We also included indole and skatole as references (Bohbot et al., [2011]). The screen was carried out using a low odorant concentration (500 nM) in order to mitigate the caveats associated with high ligand concentrations, including receptor adaptation, antagonist effects and technical artifacts such as broad molecular receptive ranges (Bohbot and Pitts, [2015]).
(In general: In two-electrode clamp one electrode senses voltage and the other passes current.)
As for `O=Cc1c[nH]c2ccccc12` [I3C, indole-3-carboxaldehyde], the “Ligand potency in AaegOR9 tuning curve (in words)” value (from here on “Ligand potency”) was “next most potent ligands”.
The same measure, in the same setting: as for `OCc1c[nH]c2ccccc12` [Indole-3-carbinole], the entry is “among the least potent ligands”.
Consider `COC(=O)c1c[nH]c2ccccc12` [Methyl indole-3-carboxylate], for which the “Ligand potency” value is listed as “next most potent ligands”.
Still for that read-out and setting: as for `CN(C)Cc1c[nH]c2ccccc12` [Gramine], the entry is “among the least potent ligands”.
Turning to `N#CCc1c[nH]c2ccccc12` [3-indole acetonitrile], the “Ligand potency” value was “next most potent ligands”.

The experiment is the same for the next values; noted with them: AaegOR9 tuning curve of Figure 1, 500 nM; 1 = most potent of 31.
For the compound `OCCc1c[nH]c2ccccc12` [3-(2-Hydroxyethyl) indole], the “Rank according to potency (No.)” value is reported as 12.
Regarding `O=C1Cc2ccccc2N1` [2-Oxindole], the “Rank according to potency (No.)” value is on record as 10.
With `O=C1/C(=C2\Nc3ccccc3C2=O)Nc2ccccc21` [Indigo], the “Rank according to potency (No.)” value is 26.
For `O=C1Nc2ccccc2C1=O` [Isatin], the “Rank according to potency (No.)” value came to 16.
Same read-out and setting: to `O=C(O)c1c[nH]c2ccccc12` [Indole-3-carboxylic acid] belongs 11.
The same measure, in the same setting: as for `O=Cc1c[nH]c2ccccc12` [I3C, indole-3-carboxaldehyde], the figure is 2; as for `OCc1c[nH]c2ccccc12` [Indole-3-carbinole], 19; as for `COC(=O)c1c[nH]c2ccccc12` [Methyl indole-3-carboxylate], 5.
On the same count and under the same terms, to `NCCc1c[nH]c2ccc(O)cc12` [Serotonin] belongs 29.
For the compound `C[C@H](NC(=O)Cc1c[nH]c2ccccc12)C(=O)O` [Indole-3-acetyl-L-alanine], the “Rank according to potency (No.)” value turned out to be 17.
Turning to `NC(=O)Cc1c[nH]c2ccccc12` [Indole-3-acetamide], the “Rank according to potency (No.)” value stood at 23.
Still for that read-out and setting: as for `COC(=O)Cc1c[nH]c2ccccc12` [Methyl indole-3-acetate], the figure is 25; as for `CN(C)Cc1c[nH]c2ccccc12` [Gramine], 27.
`O=C(O)CCCc1c[nH]c2ccccc12` [Indole-3-butyric acid]: the “Rank according to potency (No.)” value was determined as 22.
Regarding `COc1ccc2[nH]c3c(c2c1)CCNC3` [Pinoline], the “Rank according to potency (No.)” value was found to be 31.
With `COc1ccc2c3c([nH]c2c1)C(C)=NCC3` [Harmaline], the “Rank according to potency (No.)” value came to 20.
For the compound `Oc1cccc2[nH]ccc12` [4-Hydroxyindole], the “Rank according to potency (No.)” value was 7.
Consider `c1ccc2ncccc2c1` [Quinoline], for which the “Rank according to potency (No.)” value was found to be 14.
As to `O=S(=O)(O)Oc1c[nH]c2ccccc12` [Indoxyl sulfate potassium salt], the “Rank according to potency (No.)” value is 30.
Take `O=C(O)Cc1c[nH]c2ccccc12` [3-Indole acetic acid]: the “Rank according to potency (No.)” value is 28.
As to `Cc1nccc2c1[nH]c1ccccc12` [Harmane], the “Rank according to potency (No.)” value was found to be 6.
For the compound `c1ccc2c(c1)[nH]c1cnccc12` [Norharmane], the “Rank according to potency (No.)” value came out at 13.
As for `N#CCc1c[nH]c2ccccc12` [3-indole acetonitrile], the “Rank according to potency (No.)” value worked out at 4.
On the same count and under the same terms, to `NCCc1c[nH]c2ccccc12` [Tryptamine] belongs 24.
For the compound `O=C(O)CCc1c[nH]c2ccccc12` [Indole-3-propionic acid], the “Rank according to potency (No.)” value is given as 15.
As to `ON=CCc1c[nH]c2ccccc12` [Indole-3-acetaldoxime], the “Rank according to potency (No.)” value came to 21.
Regarding `c1ccc2c(Cc3c[nH]c4ccccc34)c[nH]c2c1` [3,3’-Diindolemethane], the “Rank according to potency (No.)” value stood at 8.
Still for that read-out and setting: as for `O=C(O)C=Cc1c[nH]c2ccccc12` [3-Indoleacrylic acid], the figure is 18; as for `Oc1ccc2[nH]ccc2c1` [5-Hydroxyindole], 9.

The test system of the next experiment is OR13-ORco.
Experiment: not given
The arrangement: method as in Liu et al., 2013. As to conditions: Helicoverpa armigera OR13-ORco; pheromone receptor; ref Liu et al., 2013; cited from earlier work.
With `CCCC/C=C\CCCCCCCCCC=O` [Z1 1-16:Ald], the EC50 is 3400 nM.

In the next experiment the test system is OR01-ORco.
Experiment: not given
Conditions: Plutella xyllostella OR01-ORco; pheromone receptor; ref Mitsuno et al., 2008; cited from earlier work. Also noted: method as in Mitsuno et al., 2008.
Regarding `CCCC/C=C\CCCCCCCCCC=O` [Z1 1-16:Ald], the EC50 was 880 nM.

The subject of the next experiment is OR06-Orco.
Experiment: not given
The arrangement: method as in Wanner et al., 2010. As to conditions: Ostrinia nubilalis OR06-Orco; pheromone receptor; ref Wanner et al., 2010; cited from earlier work.
On to `CC/C=C\CCCCCCCCCCOC(C)=O` [Z1 1-14:OAc], for which the concentration giving a half-maximal response (EC50) was 860 nM.

A further experiment relates to OR10-ORco.
Experiment: not given
The arrangement: method as in Xu et al., 2012. As to conditions: Amyelois transitella OR10-ORco; pheromone receptor; ref Xu et al., 2012; cited from earlier work.
Turning to `CC/C=C\C=C/CCCCCCCCCC=O` [Z1 1Z13-16:Ald], the EC50 is 499 nM.

For another experiment, the system named is OR13-ORco.
Experiment: not given
Also noted: method as in Wang et al., 2011. Conditions: Heliothis virescens OR13-ORco; pheromone receptor; ref Wang et al., 2011; cited from earlier work.
For the compound `CCCC/C=C\CCCCCCCCCC=O` [Z1 1-16:Ald], the EC50 was 367 nM.
Regarding `CCCC/C=C\CCCCCCCC=O` [Z9-14:Ald], the EC50 was 240 nM.

The next experiment has as its system OR11-ORco.
Experiment: not given
Also noted: method as in Wanner et al., 2007. Conditions: Apis mellifera OR11-ORco; pheromone receptor; ref Wanner et al., 2007; cited from earlier work.
Regarding `CC(=O)CCCCCC=CC(=O)O` [9-oxo-2-decenoic acid], the EC50 was 280 nM.

The test system of the next experiment is OR04-ORco.
Experiment: not given
As to conditions: Plutella xyllostella OR04-ORco; pheromone receptor; ref Sun et al., 2013; cited from earlier work. Also noted: method as in Sun et al., 2013.
As for `CCCC/C=C\CCCCCCCCOC(C)=O` [Z9-14: OAc], the concentration giving a half-maximal response (EC50) was 243 nM.

In a further experiment the test system is OR01-ORco.
Experiment: not given
As to conditions: Bombyx mori OR01-ORco; pheromone receptor; ref Xu et al., 2012; cited from earlier work. The arrangement: method as in Xu et al., 2012.
Regarding `CCC/C=C\C=C\CCCCCCCCCO` [E10,Z12-16:OH (Bombykol), Bombykol], the concentration for a half-maximal effect (EC50) is 45.4 nM.

Another experiment relates to OR03-ORco.
Experiment: not given
The arrangement: method as in Leary et al., 2012. As to conditions: Ostrinia furnacalis OR03-ORco; pheromone receptor; ref Leary et al., 2012; cited from earlier work.
On to `CC/C=C\CCCCCCCCCCOC(C)=O` [Z1 1-14:OAc], for which the EC50 was 25 nM.

In another experiment the test system is OR56-ORco.
Experiment: not given
The arrangement: method as in Tanaka et al., 2009. Conditions: Bombyx mori OR56-ORco; kairomone receptor; ref Tanaka et al., 2009; cited from earlier work.
With `CC/C=C\CC1=C(C)CCC1=O` [Z-jasmone], the EC50 was 6000 nM.

The test system of a further experiment is OR12-ORco.
Experiment: not given
Also noted: method as in Zhang et al., 2013. As to conditions: Spodoptera litura OR12-ORco; kairomone receptor; ref Zhang et al., 2013; cited from earlier work.
`CC/C=C\CCOC(C)=O` [Z3-6:OAc]: the EC50 is 339 nM.

The next experiment relates to OR03-ORco.
Experiment: not given
Also noted: method as in Liu et al., 2014. Conditions: Spodoptera exigua OR03-ORco; kairomone receptor; ref Liu et al., 2014; cited from earlier work.
As for `C=CC(=C)CC/C=C(\C)CCC=C(C)C` [E-b-farnesene], the EC50 is 300 nM.

For another experiment, the system named is OR65-ORco.
Experiment: not given
Conditions: Anopheles gambiae OR65-ORco; kairomone receptor; ref Wang et al., 2010; cited from earlier work. Also noted: method as in Wang et al., 2010.
With `C=CCc1ccc(O)c(OC)c1` [Eugenol], the EC50 was 222 nM.

A further experiment deals with OR08-ORco.
Experiment: not given
Also noted: method as in Bohbot et al., 2009. Conditions: Aedes aegypti OR08-ORco; kairomone receptor; ref Bohbot et al., 2009; cited from earlier work.
For the compound `C=C[C@H](O)CCCCC` [(R)-(−)-1-octen-3-ol], the 50% effective concentration (EC50) is 158 nM.

Usually EC50 stands for the concentration needed to bring the measured effect to its halfway point.
